Measured values reported in ChEMBL document CHEMBL3399992, “Identification of anti-HIV agents with a novel benzo[4,5]isothiazolo[2,3-a]pyrimidine scaffold” (Bioorg Med Chem, 2015).
Calls of active or inactive are those of the source. No cut-off for these calls is given here.

Legend:
[1] = tested on: Human immunodeficiency virus; assay: Antiviral activity against HIV 3B assessed as inhibition of infection of NCK45-beta-Gal cells after 48 hrs; type: functional, organism-based; details: Human immunodeficiency virus 1, 3B
[2] = Cytotoxicity against human NCK45 cells at 10 uM; type: cell-based; details: nck45, 10 µM
[3] = tested on: Human immunodeficiency virus; assay: Antiviral activity against HIV 3B assessed as prevention of early stage infection of NCK45-beta-Gal cells up to 48 hrs; type: functional, organism-based

Structure (SMILES) | EC50 [1] [µM] | Activity [2] | inhibition [3]
c1ccc(-c2ccc3c(c2)SN2CCCN=C32)cc1 | 0.3 | Non-toxic | –
Brc1cccc2c1SN1CCCN=C21 | > 10 | Non-toxic | –
CC(=O)Nc1ccc2c(c1)SN1CCCN=C21 | > 10 | Non-toxic | –
c1ccc(-c2ccc3c(c2)C2=NCCCN2S3)cc1 | 0.56 | Non-toxic | –
O=[N+]([O-])c1ccc(-c2ccc3c(c2)SN2CCCN=C32)cc1 | 0.08 | Non-toxic | –
COC(=O)c1cccc(-c2ccc3c(c2)SN2CCCN=C32)c1 | 0.05 | Non-toxic | Active
c1cc2c(cc1-c1ccc3c(c1)SN1CCCN=C31)OCO2 | 0.16 | Non-toxic | –
Cc1ccc2c(c1)C1=NCCCN1S2 | 0.85 | Non-toxic | –
c1cc(-c2ccc3c(c2)SN2CCCN=C32)ccn1 | 0.56 | Non-toxic | –
Brc1ccc2c(c1)SN1CCCN=C21 | 0.22 | Non-toxic | –
c1cc(-c2ccc3c(c2)SN2CCCN=C32)cs1 | 0.08 | Non-toxic | –
O=[N+]([O-])c1ccc2c(c1)SN1CCCN=C21 | 1.79 | Non-toxic | –
COc1ccc2c(c1)SN1CCCN=C21 | 0.58 | Non-toxic | –
COc1ccc2c(c1)C1=NCCCN1S2 | 2.11 | Non-toxic | –
Brc1ccc2c(c1)C1=NCCCN1S2 | 1.01 | Non-toxic | –
c1ccc(-c2ccc3c(c2)SN2CCCN=C32)nc1 | 0.34 | Non-toxic | –

Structure (SMILES) | EC50 [1] [µM] | Activity [2] | inhibition [3]
c1ccc2c3c(ccc2c1)C1=NCCCN1S3 | > 1 | Toxic | –
FC(F)(F)c1ccc2c(c1)SN1CCCN=C21 | 1.28 | Non-toxic | –
Oc1cccc(-c2ccc3c(c2)SN2CCCN=C32)c1 | 1.47 | Non-toxic | –
COc1cccc(-c2ccc3c(c2)SN2CCCN=C32)c1 | 0.1 | Non-toxic | –
N=C1Sc2ccccc2C2=NCCCN12 | 0.3 | – | Active
c1ccc2c(c1)SN1CCCN=C21 | 0.29 | Non-toxic | Active
FC(F)(F)c1ccc2c(c1)C1=NCCCN1S2 | 1.78 | Non-toxic | –
c1cn(-c2ccc3c(c2)SN2CCCN=C32)nn1 | 0.42 | Non-toxic | –
COC(=O)c1ccc(-c2ccc3c(c2)SN2CCCN=C32)cc1 | 0.16 | Non-toxic | –
O=[N+]([O-])c1cccc(-c2ccc3c(c2)SN2CCCN=C32)c1 | 0.12 | Non-toxic | –
c1cnn(-c2ccc3c(c2)SN2CCCN=C32)c1 | 0.41 | Non-toxic | –
c1coc(-c2ccc3c(c2)SN2CCCN=C32)c1 | 0.05 | Non-toxic | Active
c1cncc(-c2ccc3c(c2)SN2CCCN=C32)c1 | 0.56 | Non-toxic | –
Oc1ccc(-c2ccc3c(c2)SN2CCCN=C32)cc1 | 1.28 | Non-toxic | –
COc1ccc(-c2ccc3c(c2)SN2CCCN=C32)cc1 | 0.09 | Toxic | –
c1ccc2cc(-c3ccc4c(c3)SN3CCCN=C43)ccc2c1 | 0.12 | Non-toxic | –
